# Measurements as given in US20080004272A1, “Compositions and methods for modulating gated ion channels” (PainCeptor Pharma Corporation, priority 2006, published 2008).
# Molecular target: T1, ASIC1a (Homo sapiens, UniProt P78348)
# T1 sequence (P78348 1-528): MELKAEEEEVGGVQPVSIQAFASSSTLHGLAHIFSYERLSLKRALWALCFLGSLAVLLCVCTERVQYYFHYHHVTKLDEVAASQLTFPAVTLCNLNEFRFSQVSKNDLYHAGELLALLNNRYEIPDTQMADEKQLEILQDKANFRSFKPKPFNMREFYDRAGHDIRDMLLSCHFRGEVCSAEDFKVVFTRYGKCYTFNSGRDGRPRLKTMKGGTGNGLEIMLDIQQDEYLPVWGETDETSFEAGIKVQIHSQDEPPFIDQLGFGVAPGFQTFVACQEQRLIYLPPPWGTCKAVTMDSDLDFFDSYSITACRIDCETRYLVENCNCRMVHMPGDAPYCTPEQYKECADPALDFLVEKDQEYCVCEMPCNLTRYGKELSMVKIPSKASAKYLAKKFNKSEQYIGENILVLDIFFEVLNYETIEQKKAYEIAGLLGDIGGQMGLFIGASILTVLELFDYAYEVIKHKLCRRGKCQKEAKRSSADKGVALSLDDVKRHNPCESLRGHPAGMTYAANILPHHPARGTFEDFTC
# Assay: Calcium imaging of MES-induced calcium response (FLIPR)
# Assay type: cell-based
# Design: host or cells: HEK293
# Conditions: ASIC1a expressing HEK293 cells, MES-induced calcium response; read-out: IC50 (FLIPR)
# Protocol: […] Confluency of cells should be 80-90% on day of plating. Cells are rinsed with 10 ml of PBS and cells are re-suspended by addition of culture medium and trituration with a 25 ml pipette.
# The cells are seeded at a density of approximately 1×10^6 cells/ml (100 μl/well) in black-walled, clear bottom, 96-well plates pre-treated with 10 mg/l poly-D-lysin (75 μl/well for ≧30 min). Plated cells are allowed to proliferate for 24 h before loading with dye.
# Fluo-4/AM (1 mg, Molecular Probes) is dissolved in 912 μl DMSO. The Fluo-4/AM stock solution (1 mM) is diluted with culture medium to a final concentration of 2 μM (loading solution).
# The culture medium is aspirated from the wells, and 50 μl of the Fluo-4/AM loading solution is added to each well. The cells are incubated at 37° C. for 30 min.
# Following the second wash, 100 μl modified Assay Buffer is added to each well and the fluorescence is measured in FLIPR™ or FlexStation™ (Molecular Devices, USA), or any other suitable equipment known to the skilled in the art.
# Temperature: Room temperature (20-22° C.)
# First addition: 50 μl test solution at a rate of 30 μl/sec and a starting height of […]
# Second addition: 50 μl MES solution (20 mM, 5 mM final concentration) at a rate of 35 μl/sec and a starting height of 150 μl.
# Reading intervals: pre-incubation−10 sec×7 and 3 sec×3 antagonist phase−3 sec×7 and 10 sec×12
# Addition plates (compound test plate and MES plate) are placed on the right and left positions in the FLIPR tray, respectively. Cell plates are placed in the middle position and the ASIC1a program is effectuated. FLIPR will then take the appropriate measurements in accordance with the interval settings above. Fluorescence obtained after stimulation is corrected for the mean basal fluorescence (in modified Assay Buffer).
# The MES-induced peak calcium response, in the presence of test substance, is expressed relatively to the MES response alone. Test substances that block the MES-induced calcium response are re-tested in triplicates.
row,SMILES,IC50
1,"CCOC(=O)c1ccc(-c2cc3c(c4c2CCN(C)C4)NC(=O)C3=NO)cc1 [Compound 1, 4-(3-hydroxyimino-8-methyl-2-oxo-2,3,6,7,8,9-hexahydro-1H-pyrrolo[3,2-h]isoquinolin-5-yl)-benzoic acid ethyl ester]",> 70 µM
2,"CN1CCc2c(-c3ccc(S(=O)(=O)N4CCOCC4)cc3)cc3c(c2C1)NC(=O)C3=NO [Compound 2, 8-methyl-5-[4-(morpholine-4-sulfonyl)-phenyl]-6,7,8,9-tetrahydro-1H-pyrrolo[3,2-h]isoquinoline-2,3-dione 3-oxime]",> 70 µM
3,"CN1CCc2c(-c3ccc(C(=O)N(C)C)cc3)cc3c(c2C1)NC(=O)C3=NO [Compound 3, 4-(3-Hydroxyimino-8-methyl-2-oxo-2,3,6,7,8,9-hexahydro-1H-pyrrolo[3,2-h]isoquinolin-5-yl)-N,N-dimethyl-benzamide]",> 70 µM
4,"CN1CCc2c(-c3ccc(S(=O)(=O)N4CCN(CCO)CC4)cc3)cc3c(c2C1)NC(=O)C3=NO [Compound 4, 5-{4-[4-(2-Hydroxy-ethyl)-piperazine-1-sulfonyl]-phenyl}-8-methyl-6,7,8,9-tetrahydro-1H-pyrrolo[3,2-h]isoquinoline-2,3-dione 3-oxime]",> 70 µM
5,"CN1CCc2c(-c3ccc(S(=O)(=O)N4CCCCC4)cc3)cc3c(c2C1)NC(=O)C3=NO [Compound 5, 8-Methyl-5-[4-(piperidine-1-sulfonyl)-phenyl]-6,7,8,9-tetrahydro-1H-pyrrolo[3,2-h]isoquinoline-2,3-dione 3-oxime]",< 25 µM
6,CN1CCc2c(-c3ccc(F)c(Cl)c3)cc3c(c2C1)NC(=O)/C3=N\O [Compound 14],< 10 µM
7,Cc1cc(-c2cc3c(c4c2CCN(C)C4)NC(=O)/C3=N/O)ccc1F [Compound 15],< 10 µM
8,CN1CCc2c(-c3ccc(F)c(F)c3)cc3c(c2C1)NC(=O)/C3=N\O [Compound 16],< 10 µM
9,CN1CCc2c(-c3cc(F)cc(F)c3)cc3c(c2C1)NC(=O)/C3=N\O [Compound 17],< 10 µM
10,CN1CCc2c(-c3ccccc3C(F)(F)F)cc3c(c2C1)NC(=O)/C3=N/O [Compound 18],< 20 µM
11,CN1CCc2c(-c3ccccc3F)cc3c(c2C1)NC(=O)/C3=N/O [Compound 19],< 10 µM
12,CO/N=C1/C(=O)Nc2c1cc(-c1ccccc1OC)c1c2CN(C)CC1 [Compound 21],20 to 30 µM
13,CN1CCc2c(-c3ccccc3Cl)cc3c(c2C1)NC(=O)/C3=N/O [Compound 22],35 to 45 µM
14,CN1CCc2c(-c3cc(C(F)(F)F)cc(C(F)(F)F)c3)cc3c(c2C1)NC(=O)/C3=N\O [Compound 23],40 to 60 µM
15,CCOc1cccc(-c2cc3c(c4c2CCN(C)C4)NC(=O)/C3=N\O)c1 [Compound 25],40 to 60 µM
16,CC(=O)c1ccc(-c2cc3c(c4c2CCN(C)C4)NC(=O)/C3=N/O)s1 [Compound 26],> 70 µM
17,CN1CCc2c(-c3cccnc3)cc3c(c2C1)NC(=O)/C3=N/O [Compound 27],> 70 µM
18,CN1CCc2c(-c3cccc(C#N)c3)cc3c(c2C1)NC(=O)/C3=N\O [Compound 28],> 70 µM
19,CN1CCc2c(-c3cccc([N+](=O)[O-])c3)cc3c(c2C1)NC(=O)/C3=N\O [Compound 29],> 70 µM
20,CN1CCc2c(-c3cccc(O)c3)cc3c(c2C1)NC(=O)/C3=N/O [Compound 31],> 70 µM
21,CC(=O)c1ccccc1-c1cc2c(c3c1CCN(C)C3)NC(=O)/C2=N/O [Compound 32],> 70 µM
22,COc1c2c(c(C(C)=O)c3c1OCO3)CCN(C)C2 [Compound 33],> 70 µM
23,COc1ccccc1-c1cc2c(c3c1CCN(C)C3)NC(=O)/C2=N\O [Compound 34],< 10 µM
24,CN1CCc2c(-c3cccc(Cl)c3)cc3c(c2C1)NC(=O)/C3=N\O [Compound 35],< 10 µM
25,CN1CCc2c(-c3cccc(F)c3)cc3c(c2C1)NC(=O)/C3=N\O [Compound 36],< 10 µM
26,CCOc1ccccc1-c1cc2c(c3c1CCN(C)C3)NC(=O)/C2=N/O [Compound 37],< 10 µM
27,COCCOc1ccccc1-c1cc2c(c3c1CCN(C)C3)NC(=O)/C2=N/O [Compound 38],< 10 µM
28,CN1CCc2c(-c3cc(F)ccc3F)cc3c(c2C1)NC(=O)/C3=N/O [Compound 39],< 10 µM

row,SMILES,IC50
1,CCc1ccccc1-c1cc2c(c3c1CCN(C)C3)NC(=O)/C2=N/O [Compound 40],< 10 µM
2,Cc1ccccc1-c1cc2c(c3c1CCN(C)C3)NC(=O)/C2=N/O [Compound 41],< 10 µM
3,COc1cc(F)ccc1-c1cc2c(c3c1CCN(C)C3)NC(=O)/C2=N/O [Compound 42],< 10 µM
4,COc1cccc(-c2cc3c(c4c2CCN(C)C4)NC(=O)/C3=N\O)c1 [Compound 43],< 10 µM
5,CN1CCc2c(-c3ccccc3Oc3ccccc3)cc3c(c2C1)NC(=O)/C3=N/O [Compound 44],< 10 µM
6,COc1ncccc1-c1cc2c(c3c1CCN(C)C3)NC(=O)/C2=N/O [Compound 45],< 10 µM
7,CC(C)Oc1cccc(-c2cc3c(c4c2CCN(C)C4)NC(=O)/C3=N\O)c1 [Compound 46],40 to 60 µM
8,CC(=O)c1cccc(-c2cc3c(c4c2CCN(C)C4)NC(=O)/C3=N/O)c1 [Compound 47],> 70 µM
9,CN1CCc2c(-c3cccc(N)c3)cc3c(c2C1)NC(=O)/C3=N/O [Compound 48],> 70 µM
10,CN1CCc2c(-c3cccc(C(F)(F)F)c3)cc3c(c2C1)NC(=O)/C3=N/O [Compound 49],> 70 µM
11,CN1CCc2c(-c3ccc(F)cc3F)cc3c(c2C1)NC(=O)/C3=N/O [Compound 50],> 70 µM
12,CN1CCc2c(-c3cccc(OC(F)(F)F)c3)cc3c(c2C1)NC(=O)/C3=N/O [Compound 51],> 70 µM
13,Cc1cc(F)ccc1-c1cc2c(c3c1CCN(C)C3)NC(=O)/C2=N/O [Compound 52],> 70 µM
14,CN1CCc2c(-c3ccccc3OC(F)(F)F)cc3c(c2C1)NC(=O)/C3=N/O [Compound 53],> 70 µM
15,CN1CCc2c(-c3ccc(OC(F)(F)F)cc3)cc3c(c2C1)NC(=O)/C3=N/O [Compound 54],> 70 µM
16,CN1CCc2c(-c3ccncc3)cc3c(c2C1)NC(=O)/C3=N/O [Compound 55],> 70 µM
17,CN1CCc2c(-c3ccsc3C=O)cc3c(c2C1)NC(=O)/C3=N/O [Compound 56],> 70 µM
18,C/C(=N\O)c1c2c(c(O)c3c1OCO3)CN(C)CC2 [Compound 57],> 70 µM
19,CN1CCc2c(-c3cccc4c3oc3ccccc34)cc3c(c2C1)NC(=O)/C3=N/O [Compound 58],> 70 µM
20,CN1CCc2c(-c3ccccc3)cc3c(c2C1)NC(=O)/C3=N/OC1O[C@H](CO)[C@@H](O)[C@H](O)[C@H]1O (stereo partly shown) [Compound 59],> 70 µM
21,COc1c(F)cc(F)cc1-c1cc2c(c3c1CCN(C)C3)NC(=O)/C2=N/O [Compound 60],> 70 µM
22,CN1CCc2c(-c3cccc(F)c3F)cc3c(c2C1)NC(=O)/C3=N/O [Compound 68],< 20 µM
23,CN1CCc2c(-c3ccoc3)cc3c(c2C1)NC(=O)/C3=N/O [Compound 69],< 20 µM
24,"CC(=O)N1CCc2c(-c3ccc(Cl)cc3)cc3c(c2C1)NC(=O)C3=NO [Compound 70, 8-Acetyl-5-(4-chloro-phenyl)-6,7,8,9-tetrahydro-1H-pyrrolo[3,2-h]isoquinoline-2,3-dione 3-oxime]",> 70 µM
25,"CS(=O)(=O)N1CCc2c(-c3ccc(Cl)cc3)cc3c(c2C1)NC(=O)C3=NO [Compound 71, 5-(4-Chloro-phenyl)-8-methanesulfonyl-6,7,8,9-tetrahydro-1H-pyrrolo[3,2-h]isoquinoline-2,3-dione 3-oxime]",> 70 µM
26,"C#CN1C(=O)C(=NO)c2cc(-c3ccccc3)c3c(c21)CN(CC)CC3 [Compound 72, 8-Ethyl-1-ethynyl-5-phenyl-6,7,8,9-tetrahydro-1H-pyrrolo[3,2-h]isoquinoline-2,3-dione 3-oxime]",< 10 µM
27,"CCN1CCc2c(-c3ccccc3)cc3c(c2C1)N(CC(=O)OC)C(=O)C3=NO [Compound 73, (8-Ethyl-3-hydroxyimino-2-oxo-5-phenyl-2,3,6,7,8,9-hexahydro-pyrrolo[3,2-h]isoquinolin-1-yl)-acetic acid methyl ester]",< 20 µM
